Broadly, the EC50 is the midpoint of the concentration-response curve. A higher EC50 goes with lower potency in that assay.

One assay deals with parasites (ring stage, in human red blood cell culture). Briefly: Parasite LDH growth assay (antiparasite potency, Parasite Assay). Type of assay: cell-based, Plasmodium falciparum. The following applies: 0.7% rings, 2% haematocrit, 72 hours at 37° C., LDH readout of parasite growth. In outline: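 Growth was read by an LDH assay after a freeze–thaw cycle (−80 °C overnight, 4 h thaw at RT). Before that, parasites grew with compound for 72 h at 37 °C under gassed, humidified conditions. The input was a ring-stage culture adjusted to 0.7% parasitemia and 2% haematocrit in serum (5%)/albumax (0.5%)-supplemented RPMI-Hepes.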
On to `COCC1(C)CC(N2C(=N)NC(C)(C)CC2=O)c2cc(C(=O)N[C@@H]3c4ccccc4OC(C)(C)[C@H]3O)ccc2O1` (single isomer, unassigned) [Example 282A], for which the EC50 is 7.8 nM.

In the case of `CCC1(CC)CC(=O)N([C@@H]2CCS(=O)(=O)c3ccc(C(=O)N[C@H]4CC(C)(C)Oc5ccccc54)cc32)C(=N)N1` [Example 70A, (R)-4-(4,4-diethyl-2-imino-6-oxotetrahydropyrimidin-1(2H)-yl)-N-((S)-2,2-dimethylchroman-4-yl)thiochromane-6-carboxamide 1,1-dioxide], the EC50 turned out to be 9.3 nM. The EC50 values of the last two molecules are within 1.5-fold of each other.

For `CCC1(CC)CC(=O)N([C@@H]2CCOc3ccc(C(=O)N[C@H]4c5ccccc5OCC4(C)O)cc32)C(=N)N1` (single isomer, unassigned) [Example 60B], a half-maximal effect (EC50) was put at 1.7 nM.

Molecule `CCC1(CC)CC(=O)N([C@H]2c3cc(C(=O)N[C@@H]4c5ccccc5C[C@H]4O)ccc3CC2OC)C(=N)N1` (stereo partly drawn) [Example 140B, (3S)-3-(4,4-diethyl-2-imino-6-oxo-hexahydropyrimidin-1-yl)-N-[(1R,2R)-2-hydroxyindan-1-yl]-2-methoxy-indane-5-carboxamide] returned an EC50 of 1.7 nM.

Turning to `CCC1(CC)CC(=O)N([C@H]2c3cc(C(=O)N[C@H]4CC(C)(C)Oc5ccccc54)ccc3O[C@]2(C)COC)C(=N)N1` (single isomer, unassigned) [Example 74B], the EC50 was found to be 6.5 nM. Against the preceding molecule, the EC50 is about 3.8-fold higher.

Molecule `CCC1(CC)CC(=O)N([C@@H]2CCOc3ccc(C(=O)NC4c5ccccc5OC4(C)CO)cc32)C(=N)N1` (single isomer, unassigned) [Example 176C] showed an EC50 of 2.4 nM.

Molecule `CCC1(CC)CC(=O)N(C2c3cc(C(=O)N[C@@H]4c5ccccc5OC(C)(C)[C@H]4O)ccc3CC2OC)C(=N)N1` (single isomer, unassigned) [Example 251C] had an EC50 of 84.4 nM.

`CCC1(CC)CC(=O)N([C@H]2c3cc(C(=O)N[C@@H]4c5ccccc5OC(C)(C)[C@H]4O)ccc3OCC2OC)C(=N)N1` (stereo partly drawn) [Example 67B, (3R,4S)-4-(4,4-diethyl-2-imino-6-oxotetrahydropyrimidin-1(2H)-yl)-N-((3S,4R)-3-hydroxy-2,2-dimethylchroman-4-yl)-3-methoxychromane-6-carboxamide] returned a concentration giving a half-maximal response (EC50) of 0.8 nM.

Still in this assay, the particulars now being: Plasmodium falciparum, Erythrocyte, 72 h, 0.7% rings, 2% haematocrit, 72 hours at 37° C., LDH readout of parasite growth.
In the case of `CCC1(CC)CC(=O)N([C@@H]2CC(C)(C)Oc3ccc(C(=O)N[C@@H]4c5ccccc5OC(C)(C)[C@H]4O)cc32)C(=N)N1` [Example 34A, (R)-4-(4,4-diethyl-2-imino-6-oxotetrahydropyrimidin-1(2H)-yl)-N-((3S,4R)-3-hydroxy-2,2-dimethylchroman-4-yl)-2,2-dimethylchromane-6-carboxamide], the EC50 came out at 1.2 nM.

`COC1COc2ccc(C(=O)N[C@@H]3c4ccccc4C[C@@]3(C)O)cc2C1N1C(=N)NC(C)(C)CC1=O` (stereo partly drawn) [Example 143, N-[(1R,2R)-2-hydroxy-2-methyl-indan-1-yl]-4-(1-imino-4,4-dimethyl-6-oxo-hexahydropyrimidin-1-yl)-3-methoxy-chromane-6-carboxamide]: the response was half-maximal at 178 nM (EC50).

On to `CC[C@]1(C)CC(=O)N([C@H]2c3cc(C(=O)N[C@@H]4c5ccccc5OC[C@@]4(C)O)ccc3OC[C@@H]2COC)C(=N)N1` [Example 252, (3S,4R)-4-[(4R)-4-ethyl-2-imino-4-methyl-6-oxo-hexahydropyrimidin-1-yl]-N-[(3S,4R)-3-hydroxy-3-methyl-chroman-4-yl]-3-(methoxymethyl)chromane-6-carboxamide], for which the EC50 is 2.1 nM.

In the case of `CCC1(CC)CC(=O)N([C@@H]2CCc3ccc(C(=O)N[C@@H]4c5ccccc5OC[C@@]4(C)O)cc32)C(=N)N1` [Example 123, (3R)-3-(4,4-diethyl-2-imino-6-oxo-hexahydropyrimidin-1-yl)-N-[(3S,4R)-3-hydroxy-3-methyl-chroman-4-yl]indane-5-carboxamide], the response was half-maximal at 2.8 nM (EC50). This EC50 and that of the molecule before are within 1.5-fold of each other.

As to `CCC1(CC)CC(=O)N([C@H]2c3cc(C(=O)N[C@@H]4c5ccccc5C[C@H]4O)ccc3OC[C@@H]2C)C(=N)N1` [Example 120, (3R,4R)-4-(4,4-diethyl-2-imino-6-oxo-hexahydropyrimidin-1-yl)-N-[(1R,2R)-2-hydroxyindan-1-yl]-3-methyl-chromane-6-carboxamide], the concentration for a half-maximal effect (EC50) came out at 0.8 nM. This EC50 is about 3.5-fold lower than that of the molecule before.

For the molecule `CCC1(CC)CC(=O)N([C@H]2CCS(=O)(=O)c3ccc(C(=O)N[C@@H]4c5ccccc5C[C@H]4O)cc32)C(=N)N1` [Example 223, (4S)-4-(4,4-diethyl-2-imino-6-oxo-hexahydropyrimidin-1-yl)-N-[(1R,2R)-2-hydroxyindan-1-yl]-1,1-dioxo-3,4-dihydro-2H-thiochromene-6-carboxamide], the EC50 turned out to be 300 nM.

With `CCC1(CC)CC(=O)N([C@H]2C[C@@H](OC)c3ccc(C(=O)N[C@@H]4c5ccccc5OC(C)(C)[C@H]4O)cc32)C(=N)N1` [Example 238, (1R,3S)-3-(4,4-diethyl-2-imino-6-oxo-hexahydropyrimidin-1-yl)-N-[(3S,4R)-3-hydroxy-2,2-dimethyl-chroman-4-yl]-1-methoxy-indane-5-carboxamide], the EC50 was 47.8 nM.

As for `CC[C@]1(C)CC(=O)N([C@H]2C[C@H](C)c3ccc(C(=O)N[C@@H]4c5ccccc5OC(C)(C)[C@H]4O)cc32)C(=N)N1` [Example 170, (1S,3S)-3-[(4R)-4-ethyl-2-imino-4-methyl-6-oxo-hexahydropyrimidin-1-yl]-N-[(3S,4R)-3-hydroxy-2,2-dimethyl-chroman-4-yl]-1-methyl-indane-5-carboxamide], the midpoint of the response, the EC50, lay at 184 nM.

Turning to `CC1(C)CC(=O)N([C@@H]2CCOc3ccc(C(=O)N[C@@H]4c5cc(Cl)ccc5OC[C@H]4O)cc32)C(=N)N1` [Example 153, (4R)-N-[(3S,4R)-6-chloro-3-hydroxy-chroman-4-yl]-4-(2-imino-4,4-dimethyl-6-oxo-hexahydropyrimidin-1-yl)chromane-6-carboxamide], the EC50 was 11.5 nM.

Regarding `CCC1(CC)CC(=O)N([C@@H]2c3cc(C(=O)N[C@@H]4c5ccccc5OC(C)(C)[C@H]4O)ccc3OC[C@@]2(C)OC)C(=N)N1` [Example 295, (3S,4R)-4-(4,4-diethyl-2-imino-6-oxo-hexahydropyrimidin-1-yl)-N-[(3S,4R)-3-hydroxy-2,2-dimethyl-chroman-4-yl]-3-methoxy-3-methyl-chromane-6-carboxamide], the midpoint of the response, the EC50, lay at 100 nM.

Molecule `CCC1(CC)CC(=O)N(C2c3cc(C(=O)N[C@@H]4c5ccccc5C[C@H]4O)ccc3OC2(COC)COC)C(=N)N1` (stereo partly drawn) [Example 285, 3-(4,4-diethyl-2-imino-6-oxo-hexahydropyrimidin-1-yl)-N-[(1R,2R)-2-hydroxyindan-1-yl]-2,2-bis(methoxymethyl)-3H-benzofuran-5-carboxamide] registered an EC50 of 35.5 nM.

For the molecule `CCC1(CC)CC(=O)N([C@@H]2CCOc3ccc(C(=O)N[C@@H]4c5ccccc5C[C@H]4N)cc32)C(=N)N1` [Example 97, (4R)-N-[(1R,2R)-2-aminoindan-1-yl]-4-(4,4-diethyl-2-imino-6-oxo-hexahydropyrimidin-1-yl)chromane-6-carboxamide], the concentration giving a half-maximal response (EC50) worked out at 19 nM.

`CCC1(CC)CC(=O)N([C@H]2c3cc(C(=O)N[C@H]4CC(C)(C)Oc5ccccc54)ccc3OCC2OC)C(=N)N1` (stereo partly drawn) [Example 68A, (3R,4S)-4-(4,4-diethyl-2-imino-6-oxotetrahydropyrimidin-1(2H)-dimethylchroman-4-yl)-3-methoxychromane-6-carboxamide] had an EC50 of 1 nM.
